Reference: patent US20240261429A1, “CPMV BINDING PEPTIDE” (The Regents of the University of California, priority 2021, published 2024)
Primed or numbered codes have the meaning given here. Ends that are not written are not given here. Peptide text beside a SMILES is read from it. * marks the point of attachment. FITC = O=C1OC2(c3ccc(O)cc3Oc3cc(O)ccc32)c2ccc(NC(=S)*)cc21; Biotin = O=C1N[C@H]2[C@H](CS[C@H]2CCCCC(=O)*)N1; FITC′ = fluorescein isothiocyanate

Key:
[1] = target: CPMV; experiment: Competitive ELISA between synthetic CBP peptides and monoclonal phage MPSEF; format: binding, Cowpea mosaic virus; settings: for Kd: competition binding ELISA against MPSEF, read-out: dissociation constant KD
Experimental: 5 μg of CPMV (in 0.1 M bicarbonate buffer, pH 8.6) was coated into each well of a Nunc Maxisorp™ flat-bottom 96-well plate and incubated overnight at 4° C. 2% (w/v) BSA was also coated to serve as negative control. Next day, the plate was blocked with 2% (w/v) BSA and incubated at rt with shaking at 800 rpm for 1 h. Subsequently, the plate was washed thrice with 0.1% TBST for 1 min. 100 μL of amplified phage from the last biopanning cycle was added into each well followed by incubation at rt with shaking at 800 rpm for 1 h. Later, the plate was washed thrice with 0.5% TBST for 5 min. 100 μL of 1:500 dilution of HRP-conjugated anti-M monoclonal antibody (Abcam ab50370) was added and incubated at rt for 1 h with shaking at 8 rpm. The plate was again washed thrice with 0.5% TBST for 5 min followed by adding 100 μL of tetramethylbenzidine (TMB) substrate (Thermo Scientific Pierce) into each well. The plate was incubated at dark for 10 min and the absorbance was measured at 370 nm using an Infinite 200 Rx plate reader (Tecan Life Sciences) with 25 flashes in 96-well flat-bottom plate mode. Monoclonal phages with at least 0.3 difference in absorbance value between CPMV and BSA were subjected for DNA sequencing (Eurofins Genomics).
Competitive ELISA was performed as mentioned in ‘Monoclonal ELISA’ with modifications. Two-fold serial dilutions of CPMV peptide (0.500 μg, 0.250 μg, 0.125 μg, 0.063 μg, 0.031 μg, 0.016 μg, 0.008 μg, 0.004 μg, 0.002 μg) were added separately into the well together with 10^9 pfu of monoclonal phages. The reaction after incubation with TMB substrate was stopped with 50 μL of 2 N H2SO4. Colorimetric detection was carried out by measurement at 450 nm using an Infinite 200 Rx plate reader (Tecan Life Sciences) with 25 flashes in 96-well flat-bottom plate mode.
To determine the dissociation constant KD, competition binding ELISAs were set up. Here binding of synthetic CBPs (used in a dilution series) to CPMV was competed against MPSEF (used as constant amount). Phage MPSEF was detected by HRP-conjugated anti-M13 monoclonal antibody and measured at OD450 nm. CPMV bound MPSEF (OD450 nm) is inversely proportionate to the amount of peptide loaded for competition. The amount of MPSEF binding to CPMV reduced with the increasing amount of synthetic peptides, subsequently yielded lower absorbance value (FIG. 4G and FIG. 4H). […] Different modes of peptide modification resulted different IC50 and KD values despite having the exact same sequence.

[2] = test system: CPMV coat proteins (S and L protein); experiment: Modified western blot of CBP-biotin on denatured CPMV coat proteins; format: binding, Cowpea mosaic virus; settings: denatured S and L protein on nitrocellulose, streptavidin HRP (FIG. 3C)
Experimental: 10 μg of CPMV was loaded onto a NuPage™ 12% bis-tris gel (Thermo Fisher Scientific) and electrophoresed for 40 min at 200 V. Proteins were then blotted onto Amersham Protran 0.45 Nitrocellulose membrane (GE Healthcare) at 25 V for 2 h. The membrane was then blocked with 5% (w/v) BSA for 1 h at rt with gentle shaking. Subsequently, the membrane was washed thrice with 0.5% TBST for 1 min. 1 μg/mL of CPMV-biotin peptide was added to the membrane for 1 h incubation at rt. The membrane was then washed with 0.5% TBST for min. 100 μL of 1:500 dilution of HRP-conjugated anti-streptavidin monoclonal antibody (Abcam ab7403) was added and incubated at rt for 1 h. Following three washes with 0.5% TBST, the membrane was developed with DAB substrate kit, peroxidase HRP (Vector Laboratories) for 5-10 min. The DAB reagent was drained off and the bands were documented with ProteinSimple FluorChem®.

[3] = test system: CPMV; experiment: Peptide ELISA of CBP-biotin on streptavidin plate; format: binding, Cowpea mosaic virus; settings: 5 μg CPMV, vs. control without CPMV, p<0.0001 (FIG. 4E)
Experimental: The plate was blocked with 2% (w/v) BSA followed by three washings with 0.1% TBST for 1 min per wash. 5 μg of CPMV was added for binding and incubated for 1 h at rt with shaking at 8 rpm. Then the plate was washed thrice with 0.5% TBST for 5 min each wash. 100 μL of anti-CPMV rabbit polyclonal antibodies (1:500 dilution) was added to the wells followed by incubation at rt for 1 h with shaking at 800 rpm. Following three washing steps using 0.5% TBST for 5 min, 100 μL of HRP conjugated goat anti-rabbit antibodies (1:5000 dilution; Pacific Immunology) was added to the wells and incubated at rt for 1 h with shaking at 800 rpm. Finally, the plate was washed thrice with 0.5% TBST followed by adding 100 μL of TMB substrate (Thermo Scientific Pierce) into each well. The plate was incubated in the dark for 5-10 min and the reaction was stopped with 50 μL of 2N H2SO4. Absorbance was measured at 450 nm using an Infinite 200 Rx plate reader (Tecan Life Sciences) with 25 flashes in 96-well flat-bottom plate mode.
Next, Applicant performed a series of enzyme-linked immunosorbent assays (ELISAs) using the CBP-FITC and CBP-biotin to further probe their binding affinity to CPMV. CBP-biotin was coated onto a streptavidin-functionalized plate, this was followed by incubation with CPMV (CPMV was omitted for the control) (FIG. 4E). […]

[4] = target: p185HER2/neu (Homo sapiens, UniProt P04626); settings: binding to p185HER2/neu; cited from earlier work
[5] = test system: CPMV; experiment: Native agarose gel electrophoresis of FITC peptides with CPMV; format: binding, Cowpea mosaic virus; settings: 1.2% agarose gel after dual-purification
Experimental: 10 μg of FITC peptide conjugated CPMV was loaded onto a 1.2% (w/v) TAE agarose gel. 10 μg of CPMV and 1 μg of free CPMV-FITC peptide was loaded as control. The samples were electrophoresed at 110 V for 40 min.
The dual functional CBP-AHNP peptide was synthesized by fusing AHNP to the C-terminus of the CBP domain. A control peptide (*AHNP) without the CBP domain was also synthesized; both peptides were modified with a FITC label at their C terminus. CPMV-CBP-AHNP and controls were characterized by native agarose gel electrophoresis as described above.

[6] = target: T1, Cowpea mosaic virus (CPMV) (Cowpea mosaic virus), P03599; experiment: competitive ELISA against MPSEF phage (10^9 pfu) on coated CPMV
T1 chain 1: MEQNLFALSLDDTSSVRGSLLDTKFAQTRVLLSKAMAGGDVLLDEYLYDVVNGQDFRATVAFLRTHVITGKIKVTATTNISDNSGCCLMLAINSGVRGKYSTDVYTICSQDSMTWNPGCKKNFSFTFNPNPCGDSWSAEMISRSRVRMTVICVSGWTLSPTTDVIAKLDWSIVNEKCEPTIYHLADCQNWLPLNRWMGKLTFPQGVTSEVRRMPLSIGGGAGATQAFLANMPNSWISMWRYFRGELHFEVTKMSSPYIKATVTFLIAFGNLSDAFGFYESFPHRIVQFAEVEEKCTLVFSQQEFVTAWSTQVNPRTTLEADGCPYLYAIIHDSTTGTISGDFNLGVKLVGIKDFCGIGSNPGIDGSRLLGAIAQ
T1 chain 2: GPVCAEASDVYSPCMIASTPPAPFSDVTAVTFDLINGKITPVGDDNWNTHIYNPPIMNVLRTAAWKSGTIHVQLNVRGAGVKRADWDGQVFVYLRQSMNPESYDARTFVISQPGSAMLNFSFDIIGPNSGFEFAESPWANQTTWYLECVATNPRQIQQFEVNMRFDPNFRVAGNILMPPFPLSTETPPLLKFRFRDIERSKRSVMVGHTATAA

[7] = target: T1, Cowpea mosaic virus (CPMV) (Cowpea …); experiment: from competition binding ELISA against MPSEF phage on coated CPMV
[8] = target: T1, Cowpea mosaic virus (CPMV) (Cowpea …); experiment: UV/visible spectroscopy of the purified complex (500-molar excess of peptide)
[9] = peptide dilution series competed against constant MPSEF phage for CPMV, OD450 nm

In the case of `CC(C)[C@H](NC(=O)[C@H](CCCNC(=N)N)NC(=O)[C@H](Cc1c[nH]c2ccccc12)NC(=O)CN)C(=O)N[C@@H](CO)C(=O)N[C@@H](CCC(=O)O)C(=O)N[C@@H](Cc1ccccc1)C(=O)NCC(=O)NCC(=O)NCC(=O)N[C@@H](CO)C(=O)N[C@@H](CCCCNC(=S)Nc1ccc2c(c1)C(=O)OC21c2ccc(O)cc2Oc2cc(O)ccc21)C(=O)O` [CBP-FITC] (H-GWRVSEFGGGSK(FITC)-OH; N-terminus and C-terminus assumed), the Kd [1] is reported as ~700 nM and the “half maximal inhibition concentration (IC50)” value [1, 9] is reported as 0.56 µg.

With `CC(C)[C@H](NC(=O)[C@H](CCCNC(=N)N)NC(=O)[C@H](Cc1c[nH]c2ccccc12)NC(=O)CN)C(=O)N[C@@H](CO)C(=O)N[C@@H](CCC(=O)O)C(=O)N[C@@H](Cc1ccccc1)C(=O)NCC(=O)NCC(=O)NCC(=O)N[C@@H](CO)C(=O)N[C@@H](CCCCNC(=O)CCCC[C@@H]1SC[C@@H]2NC(=O)N[C@@H]21)C(=O)O` [CBP-biotin] (H-GWRVSEFGGGSK(Biotin)-OH; N-terminus and C-terminus assumed) the Kd [1] was ~7 nM, the “half maximal inhibition concentration (IC50)” value [1, 9] was 0.17 µg and the IC50 ([1]; peptide dilution series competed against constant MPSEF phage for CPMV, OD450 nm, read-out: half maximal inhibition concentration (IC50)) was 1140 nM. The “binding to CPMV coat proteins in western blot” value [2] was “bound to the CPMV coat proteins” and the “CPMV binding in ELISA” value [3] was “consistent with CPMV binding”.

In the case of “FCDGFYACYMDV [AHNP, cyclic peptide derived from monoclonal antibody trastuzumab, HER2 ligand]”, the Kd [4] is given as 300 nM.

In the case of “N-GWRVSEF-KKKKKKKKDDDD-FCDGFYACYMDVK/FITC/-C (GWRVSEFKKKKKKKKDDDDFCDGFYACYMDVK; not fully specified (C-terminus, bridges); cysteine pairing not given here; also: FITC label at C-terminal Lys) [CBP-AHNP, dual functional peptide, AHNP fused to the C-terminus of the CBP domain, FITC label]”, the “labeling of CPMV seen by native agarose gel electrophoresis (FITC signal with RNA and protein band)” value [5] is reported as “successful labeling”.

For “N-KKKKKKKKDDDD-FCDGFYACYMDVK/FITC/-C (KKKKKKKKDDDDFCDGFYACYMDVK; not fully specified (C-terminus, bridges); cysteine pairing not given here; also: FITC label at C-terminal Lys) [*AHNP, control peptide without the CBP domain, FITC label at C terminus, reference compound]”, the “labeling of CPMV seen by native agarose gel electrophoresis (FITC signal with RNA and protein band)” value [5] was “no non-specific interaction”.

Work on GWRVSEFGGGSK-biotin (not fully specified (residue 12)) [CBP-biotin (N-…/biotin/-C)] yielded an IC50 [6] of 1140 nM and a Kd [7] of 7 nM.

Molecule GWRVSEFGGGSK-{FITC′} (not fully specified (residue 12)) [CBP-FITC (N-…/FITC/-C)] has an IC50 [6] of 3340 nM, a Kd [7] of 700 nM and a CBP-FITC peptides per CPMV particle (peptides per CPMV particle) [8] of 6.
